Results published in PubChem BioAssay (NCI).
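Interpolation was linear, between the two tested concentrations surrounding the appropriate level; five concentrations were tested over 48 hours in 96-well plates. At the TGI there is no net growth.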

Tests used:
Test in all cases: NCI-60 cell line screen, 48 h
UACC-257 melanoma = tested on: UACC-257 melanoma
MDA-MB-435 = tested on: MDA-MB-435
IGROV1 ovarian = tested on: IGROV1 ovarian
ACHN renal = tested on: ACHN renal
HS 578T breast = tested on: HS 578T breast
M14 melanoma = tested on: M14 melanoma
MCF7 breast = tested on: MCF7 breast
U251 CNS = tested on: U251 CNS
MALME-3M melanoma = tested on: MALME-3M melanoma
NCI-H226 lung = tested on: NCI-H226 lung
HCC-2998 colon = tested on: HCC-2998 colon
SR leukemia = tested on: SR leukemia
OVCAR-3 ovarian = tested on: OVCAR-3 ovarian
MDA-N = tested on: MDA-N
KM12 colon = tested on: KM12 colon
HCT-15 colon = tested on: HCT-15 colon
SW-620 colon = tested on: SW-620 colon
SK-MEL-2 melanoma = tested on: SK-MEL-2 melanoma
NCI-H23 lung = tested on: NCI-H23 lung
K-562 leukemia = tested on: K-562 leukemia
EKVX NSCLC = tested on: EKVX NSCLC
UACC-62 melanoma = tested on: UACC-62 melanoma
HOP-62 NSCLC = tested on: HOP-62 NSCLC
T-47D breast = tested on: T-47D breast
SN12C renal = tested on: SN12C renal
HT29 colon = tested on: HT29 colon
SK-MEL-28 melanoma = tested on: SK-MEL-28 melanoma
RXF 393 renal = tested on: RXF 393 renal
CCRF-CEM leukemia = tested on: CCRF-CEM leukemia
HOP-92 NSCLC = tested on: HOP-92 NSCLC
SF-539 CNS = tested on: SF-539 CNS
SNB-75 CNS = tested on: SNB-75 CNS
SF-268 CNS = tested on: SF-268 CNS
CAKI-1 renal = tested on: CAKI-1 renal
UO-31 renal = tested on: UO-31 renal
A549 NSCLC = tested on: A549 NSCLC
RPMI-8226 leukemia = tested on: RPMI-8226 leukemia
HCT-116 colon = tested on: HCT-116 colon
MOLT-4 leukemia = tested on: MOLT-4 leukemia
HL-60(TB) leukemia = tested on: HL-60(TB) leukemia
SNB-19 CNS = tested on: SNB-19 CNS
SK-MEL-5 melanoma = tested on: SK-MEL-5 melanoma
BT-549 breast = tested on: BT-549 breast
OVCAR-5 ovarian = tested on: OVCAR-5 ovarian
NCI-H460 lung = tested on: NCI-H460 lung
LOX IMVI melanoma = tested on: LOX IMVI melanoma
SK-OV-3 ovarian = tested on: SK-OV-3 ovarian
A498 renal = tested on: A498 renal
TK-10 renal = tested on: TK-10 renal
MDA-MB-231 breast = tested on: MDA-MB-231 breast
NCI-H522 lung = tested on: NCI-H522 lung
DU-145 prostate = tested on: DU-145 prostate

Measured: TGI

CCOC(=O)NC(NCC(O)c1ccccc1)(C(F)(F)F)C(F)(F)F (configuration not stated)
> 100 µM: UACC-257 melanoma | MDA-MB-435 | IGROV1 ovarian | ACHN renal | HS 578T breast | M14 melanoma | MCF7 breast | U251 CNS | MALME-3M melanoma | NCI-H226 lung | HCC-2998 colon | SR leukemia | OVCAR-3 ovarian | MDA-N | KM12 colon | HCT-15 colon | SW-620 colon | SK-MEL-2 melanoma | NCI-H23 lung | K-562 leukemia | EKVX NSCLC | UACC-62 melanoma | HOP-62 NSCLC | T-47D breast | SN12C renal | HT29 colon | SK-MEL-28 melanoma | RXF 393 renal | CCRF-CEM leukemia | HOP-92 NSCLC | SF-539 CNS | SNB-75 CNS | SF-268 CNS | CAKI-1 renal | UO-31 renal | A549 NSCLC | RPMI-8226 leukemia | HCT-116 colon | MOLT-4 leukemia | HL-60(TB) leukemia | SNB-19 CNS | SK-MEL-5 melanoma | BT-549 breast | OVCAR-5 ovarian | NCI-H460 lung | LOX IMVI melanoma | SK-OV-3 ovarian | A498 renal | TK-10 renal | MDA-MB-231 breast | NCI-H522 lung | DU-145 prostate
